We go through eleven compounds from ChEMBL document CHEMBL4354824, “4-Aryl-1-oxa-4,9-diazaspiro[5.5]undecane Derivatives as Dual μ-Opioid Receptor Agonists and σ1 Receptor Antagonists for the Treatment of Pain” (J Med Chem, 2020).

Structures are written as SMILES.

Assay [1] addresses T1, Mu-type opioid receptor (Homo sapiens, UniProt P35372). Briefly: biochemical.
Description: Displacement of [3H]-DAMGO from human MOR expressed in CHOK1 cell membranes incubated for 60 mins by liquid scintillation counting method
Assay [2] deals with T1, Mu-type opioid receptor. Briefly: Displacement of [3H]-DAMGO from human MOR expressed in CHOK1 cell membranes at 1 uM incubated for 60 mins by liquid scintillation counting method.
Assay [3] addresses T1, Mu-type opioid receptor. Description: Agonist activity at human MOR expressed in CHOK1 cells assessed as […] of cAMP accumulation incubated for 45 mins by HTRF assay. It counts as functional, cell-based. (In general: cAMP levels reflect the balance of adenylyl cyclase and phosphodiesterase activity.)
The target of assay [4] is Sigma non-opioid intracellular receptor 1 (Homo sapiens, UniProt Q99720). Briefly: Displacement of [3H]-(+)-pentazocine from human sigma-1 receptor expressed in HEK293 membranes incubated for 120 mins by liquid scintillation counting method.
Assay [5] deals with T2, Alpha-1A adrenergic receptor (Homo sapiens) (UniProt P35348).
T2 sequence (whole entry): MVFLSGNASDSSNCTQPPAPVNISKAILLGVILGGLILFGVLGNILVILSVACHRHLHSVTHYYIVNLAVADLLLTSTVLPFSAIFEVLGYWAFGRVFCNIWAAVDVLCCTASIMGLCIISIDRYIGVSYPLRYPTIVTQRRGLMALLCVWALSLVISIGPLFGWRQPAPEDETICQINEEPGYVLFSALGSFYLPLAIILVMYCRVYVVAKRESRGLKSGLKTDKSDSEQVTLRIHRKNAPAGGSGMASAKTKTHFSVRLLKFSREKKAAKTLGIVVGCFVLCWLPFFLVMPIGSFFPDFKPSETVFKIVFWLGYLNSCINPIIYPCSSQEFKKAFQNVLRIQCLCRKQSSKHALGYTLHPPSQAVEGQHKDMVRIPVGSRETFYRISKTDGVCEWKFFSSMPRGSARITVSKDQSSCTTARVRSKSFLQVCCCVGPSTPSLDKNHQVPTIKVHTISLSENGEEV
Briefly: Displacement of [3H]-prazosin from human alpha1A adrenoreceptor expressed in enriched membranes at 1 uM incubated for 90 mins by liquid scintillation counting method relative to control. It counts as cell membranes. Background: Loss of bound radioactivity is the signal in a displacement assay; it reports binding, not function.

Assay [6] has as its target T1, Mu-type opioid receptor. Briefly: Agonist activity at human MOR expressed in CHOK1 cells assessed as […] of cAMP accumulation at 1 uM incubated for 45 mins by HTRF assay. It counts as functional, cell-based.
The target of assay [7] is Voltage-gated inwardly rectifying potassium channel KCNH2 (Homo sapiens, UniProt Q12809).
Description: Inhibition of human ERG expressed in CHOK1 cells assessed as reduction in channel current at -80 mV holding potential by whole cell patch clamp assay
For assay [8], the target named is T1, Mu-type opioid receptor. Briefly: Agonist activity at human MOR expressed in CHOK1 cells assessed as […] of cAMP accumulation incubated for 45 mins by HTRF assay relative to DAMGO. Type of assay: functional, cell-based.
Assay [9] concerns the target T1, Mu-type opioid receptor. Description: Agonist activity at human MOR expressed in CHOK1 cells assessed as […] of cAMP accumulation at 10 uM incubated for 45 mins by HTRF assay. It counts as functional, cell-based.
Assay [10] concerns the target T1, Mu-type opioid receptor. Briefly: Displacement of [3H]-DAMGO from human MOR expressed in CHOK1 cell membranes at 10 uM incubated for 60 mins by liquid scintillation counting method.

T1 sequence (P35372 whole entry): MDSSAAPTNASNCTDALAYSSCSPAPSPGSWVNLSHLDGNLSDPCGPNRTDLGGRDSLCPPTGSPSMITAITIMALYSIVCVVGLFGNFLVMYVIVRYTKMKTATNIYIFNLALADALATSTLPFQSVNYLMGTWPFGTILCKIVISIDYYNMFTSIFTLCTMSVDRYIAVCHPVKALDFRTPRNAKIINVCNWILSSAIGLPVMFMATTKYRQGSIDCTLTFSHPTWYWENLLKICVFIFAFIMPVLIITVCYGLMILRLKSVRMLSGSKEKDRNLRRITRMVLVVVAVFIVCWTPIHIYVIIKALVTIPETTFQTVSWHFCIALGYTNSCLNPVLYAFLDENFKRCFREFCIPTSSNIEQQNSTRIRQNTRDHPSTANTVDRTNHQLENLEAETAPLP
Chain of Voltage-gated inwardly rectifying potassium channel KCNH2 (Q12809 whole entry): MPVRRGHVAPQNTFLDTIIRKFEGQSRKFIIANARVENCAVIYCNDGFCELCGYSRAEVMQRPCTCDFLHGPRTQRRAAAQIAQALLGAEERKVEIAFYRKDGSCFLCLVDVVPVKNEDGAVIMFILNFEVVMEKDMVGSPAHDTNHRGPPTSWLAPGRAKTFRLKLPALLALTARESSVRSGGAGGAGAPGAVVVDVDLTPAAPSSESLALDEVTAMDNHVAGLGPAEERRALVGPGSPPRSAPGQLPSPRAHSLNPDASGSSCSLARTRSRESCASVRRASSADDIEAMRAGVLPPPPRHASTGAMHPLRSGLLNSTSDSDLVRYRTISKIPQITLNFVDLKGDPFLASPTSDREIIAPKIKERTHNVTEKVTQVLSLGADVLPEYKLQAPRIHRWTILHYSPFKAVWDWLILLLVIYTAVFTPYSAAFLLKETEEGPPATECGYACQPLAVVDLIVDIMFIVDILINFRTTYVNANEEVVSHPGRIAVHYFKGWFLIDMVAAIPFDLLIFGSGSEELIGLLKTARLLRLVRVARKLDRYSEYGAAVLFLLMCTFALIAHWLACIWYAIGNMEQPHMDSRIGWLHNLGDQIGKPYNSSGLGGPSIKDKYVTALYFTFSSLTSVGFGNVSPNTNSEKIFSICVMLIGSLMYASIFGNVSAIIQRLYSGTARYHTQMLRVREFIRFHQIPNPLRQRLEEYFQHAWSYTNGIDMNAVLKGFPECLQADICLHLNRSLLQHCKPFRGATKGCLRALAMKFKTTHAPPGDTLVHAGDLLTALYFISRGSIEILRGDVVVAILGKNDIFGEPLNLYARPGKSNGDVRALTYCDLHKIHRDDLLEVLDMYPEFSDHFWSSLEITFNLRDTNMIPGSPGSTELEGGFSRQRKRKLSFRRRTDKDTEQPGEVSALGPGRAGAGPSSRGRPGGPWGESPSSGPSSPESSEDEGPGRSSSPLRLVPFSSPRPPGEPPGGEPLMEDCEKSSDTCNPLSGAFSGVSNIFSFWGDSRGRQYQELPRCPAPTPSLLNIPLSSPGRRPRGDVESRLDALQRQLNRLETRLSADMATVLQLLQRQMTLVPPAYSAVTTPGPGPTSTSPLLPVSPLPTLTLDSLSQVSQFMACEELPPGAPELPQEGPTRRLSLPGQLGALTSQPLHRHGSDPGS
Chain of Sigma non-opioid intracellular receptor 1 (Q99720 whole entry): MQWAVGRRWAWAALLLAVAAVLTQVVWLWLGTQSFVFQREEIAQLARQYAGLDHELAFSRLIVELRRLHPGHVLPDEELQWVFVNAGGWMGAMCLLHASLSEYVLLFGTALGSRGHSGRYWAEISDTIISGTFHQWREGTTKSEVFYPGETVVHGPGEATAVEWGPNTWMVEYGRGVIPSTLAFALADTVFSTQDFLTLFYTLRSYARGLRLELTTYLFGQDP

Consider `CC(=O)Nc1ccc(CCN2CCC3(CC2)CN(c2ccccc2)C(=O)C(C)O3)cc1` (configuration not stated), for which the inhibitory constant (Ki) was greater than 1000 nM at Mu-type opioid receptor [1] and 237 nM in assay [4]. Further, the inhibition at Mu-type opioid receptor [2] was less than 50%; in assay [5], 60%. The 50% effective concentration (EC50) at Mu-type opioid receptor [3] was greater than 1000 nM. In addition, the Activity on Mu-type opioid receptor [6] was less than 50%.
For `CC1OC2(CCN(CCc3ccccc3)CC2)CN(c2ccccc2Cl)C1=O` (configuration not stated), the inhibition constant Ki is 3 nM at Mu-type opioid receptor [1] and 8 nM in assay [4]. Moreover, the concentration for half-maximal inhibition (IC50) in assay [7] was found to be 1000 nM. In addition, the EC50 at Mu-type opioid receptor [3] is 1 nM. In addition, the maximal effect (Emax) on Mu-type opioid receptor [8] turned out to be 96%. In [5], this compound showed an inhibition of 75%.
With `CC1OC2(CCN(CCc3ccccc3)CC2)CN(c2ccncc2)C1=O` (configuration not stated), the values for the Ki (at Mu-type opioid receptor [1]; in [4]) were greater than 1000 nM and 88 nM, respectively. The inhibition at Mu-type opioid receptor [2] was less than 50%; in assay [5], 68%. Further, the EC50 on Mu-type opioid receptor [3] was greater than 1000 nM. The Activity at Mu-type opioid receptor [6] is less than 50%.
In the case of `CC1OC2(CCN(CCc3cccc(F)c3)CC2)CN(c2ccccc2)C1=O` (configuration not stated), the inhibition constant (Ki) at Mu-type opioid receptor [1] came to 10 nM; in [4], 8 nM. In assay [7], this compound gave an IC50 of 600 nM. In addition, the concentration giving a half-maximal response (EC50) on Mu-type opioid receptor [3] was determined as 13 nM. The Emax on Mu-type opioid receptor [8] was 94%. Moreover, in assay [5], the inhibition came to 74%.
`CC1OC2(CCN(CCc3ccc(F)cc3)CC2)CN(c2ccccc2)C1=O` (configuration not stated): the inhibition constant Ki on Mu-type opioid receptor [1] worked out at 19 nM; in assay [4], 11 nM. Moreover, in [7], the IC50 turned out to be 100 nM. Also, the EC50 on Mu-type opioid receptor [3] was determined as 25 nM. In addition, the Emax on Mu-type opioid receptor [8] was found to be 95%. For the same compound, the inhibition in assay [5] worked out at 80%.
As to `O=C1C(CO)OC2(CCN(CCc3ccccc3)CC2)CN1c1ccccc1` (configuration not stated), the figures for the inhibitory constant (Ki) (on Mu-type opioid receptor [1]; in assay [4]) were 46 nM and 209 nM, respectively. Also, the midpoint of inhibition in assay [7], the IC50, lay at 1100 nM. Moreover, the EC50 at Mu-type opioid receptor [3] amounted to 125 nM. Also, the maximal response (Emax) at Mu-type opioid receptor [8] turned out to be 88%. In addition, in assay [5], the inhibition was 55%.
For the compound `O=C(CCCN1CCC(O)(c2ccc(Cl)cc2)CC1)c1ccc(F)cc1`, the Activity at Mu-type opioid receptor [9] was less than 50%. Besides, the inhibition on Mu-type opioid receptor [10] was less than 50%.
`CN(C)C(=O)CC1OC2(CCN(CCc3ccccc3)CC2)CN(c2ccccc2)C1=O` (configuration not stated): the figures for the inhibition constant Ki (on Mu-type opioid receptor [1]; in assay [4]) were 636 nM and 275 nM, respectively. Moreover, at Mu-type opioid receptor [3], the EC50 is greater than 1000 nM. In addition, on Mu-type opioid receptor [6], the Activity was less than 50%.
For the compound `COc1ccc(N2CC3(CCN(CCc4ccccc4)CC3)OC(C)C2=O)cc1` (configuration not stated), the inhibitory constant (Ki) at Mu-type opioid receptor [1] was greater than 1000 nM; in assay [4], 14 nM. In addition, the values for the inhibition (on Mu-type opioid receptor [2]; in assay [5]) were less than 50% and 69%, respectively. The EC50 at Mu-type opioid receptor [3] is greater than 1000 nM. Also, on Mu-type opioid receptor [6], the Activity is less than 50%.
Consider `CC1OC2(CCN(CCc3ccccc3)CC2)CN(c2cccc(O)c2)C1=O` (configuration not stated), for which the inhibitory constant (Ki) amounted to 727 nM at Mu-type opioid receptor [1] and 55 nM in assay [4]. For the same compound, the concentration giving a half-maximal response (EC50) at Mu-type opioid receptor [3] is greater than 1000 nM. The inhibition in assay [5] was 67%. Further, on Mu-type opioid receptor [6], the Activity was less than 50%.
As for `O=C1OC2(CCN(CCc3ccccc3)CC2)CN1c1ccccc1`, the Ki is 401 nM on Mu-type opioid receptor [1] and 55 nM in assay [4]. The EC50 at Mu-type opioid receptor [3] is greater than 1000 nM. The Activity at Mu-type opioid receptor [6] was less than 50%.

For orientation: Ki means a measure of affinity in units of concentration, obtained from inhibition or displacement. A high value points to a looser hold on the target. Broadly, the inhibition is the share of the control response that was lost under treatment. High values mean strong suppression, low ones little suppression. As usually defined, the EC50 is the midpoint of the concentration-response curve. Broadly, the IC50 is the midpoint of a concentration-inhibition curve. Low readings indicate higher potency, high ones lower potency. As a reminder, the Emax is the maximal effect, on the per cent scale that the assay sets.
